Measured values published in US20260207570A1, “OPTIMIZED DOSING OF LERIGLITAZONE” (MINORYX THERAPEUTICS S.L., priority 2022, published 2026).
Read-outs that look alike come from different tables or passages of the source.

Assay: Phase 1 single ascending dose (SAD) pharmacokinetics in healthy volunteers
Type: in vivo, human
Details: for Vd/F: read-out: Vz/F
Protocol: Study design: A phase 1, randomized, double blind, placebo-controlled, single-center clinical study in 33 male healthy volunteers (HV) (19-54 years, 63.2-95.7 Kg) was conducted with leriglitazone HCl and divided in two parts: a single ascending dose (SAD) with three dose levels (30, 90 and 270 mg) in fasted conditions, followed with two dose levels (90 and 270 mg) in fed conditions; a multiple ascending dose (MAD) with a double-blind, parallel-design with two dose levels (135 and 270 mg) for 8 days and a separate cohort of subjects in an open-label parallel design with two dose levels (135 and 270 mg) including cerebrospinal fluid (CSF) collection on day 8. In the fasted conditions a fasting period of at least 4 hours was required before obtaining plasma samples. The food effect (FE) was assessed by comparing fasted with fed conditions (dosing after a high-fat breakfast per FDA definition with a calculated caloric content of 918 kcal). In the MAD part (fed) the medication was taken before a normal breakfast. Leriglitazone HCl was supplied by ChemConnection and an oral suspension of leriglitazone (20% w/v kleptose, 2% ethanol in 100 mM phosphate buffer pH=7.8) at 6 mg/ml was used in the study.
Blood, Urine and CSF sampling: In the SAD, blood samples were drawn at the following time points: pre-dose and 0.25, 0.5, 0.75, 1, 1.5, 2, 2.5, 3, 4, 5, 6, 8, 10, 12, 16, 24, 36, 48, 72, 96 and 120 hours post-dose. Urine was collected at pre-dose (within 12 hours prior to dosing) and over 0-6, 6-12, 12-24, 24-36, 36-48 hours post-dose collection intervals. In the MAD, blood samples were collected on day 1 at pre-dose and 0.25, 0.5, 0.75, 1, 1.5, 2, 2.5, 3, 4, 5, 6, 8, 10, 12, and 16 hours post-dose and at pre-dose and at 4 hours post-dose on day 2 to day 7, and on day 8 at pre-dose and 0.25, 0.5, 0.75, 1, 1.5, 2, 2.5, 3, 4, 5, 6, 8, 10, 12, 16, 24, 36, 48, 72, 96 and 120 hours post-dose. CSF were taken on day −1 and on day 8, at 4 hours post-dose.
Pharmacokinetic parameter calculation: PK parameters (Cmax, Tmax, t1/2, AUC0-t, CL/F, Vz/F, AUC0-t, RAUC, RCmax) were estimated using non-compartmental analysis (NCA) (Phoenix WinNonlin® Version 6.3).
Statistical analysis: Descriptive statistics for all relevant PK parameters: n, mean, minimum, median, maximum, geometric mean, and coefficient of variation (CV %); analysis of variance on Cmax and AUC to determine dose proportionality and food effect (FE).

CC(O)c1ccc(CCOc2ccc(CC3SC(=O)NC3=O)cc2)nc1 (centres unmarked) [Leriglitazone, 5-[[4-[2-[5-(1-hydroxyethyl)pyridin-2-yl]ethoxy]phenyl]methyl]-1,3-thiazolidine-2,4-dione]
Ka (SAD 270 mg Fed, estimated): 0.49 (CV: 9%) 1/h | CL/F (SAD 270 mg fasted, n = 5, geometric mean (CV %)): 0.731 (16.2) L/h | CL/F (SAD 270 mg fed, n = 5, geometric mean (CV %)): 0.733 (17.8) L/h | dose proportionality of AUC (SAD 30, 90 and 270 mg): AUC increased proportionally with the dose | food effect on overall exposure (SAD fed vs fasted, food lowered Cmax and prolonged Tmax): overall exposure was not affected | leriglitazone converted to M3 (from individual phase 1 plasma PK data): up to 51% | Vd (male, human, plasma, oral, 30 mg, SAD 30 mg Fasted, NCA estimate, per kg body weight, read-out: Vss): 0.29 L/kg | Vd (male, human, plasma, oral, 30 mg, SAD 30 mg Fasted, NCA estimate, read-out: Vss): 23.1 L | Tmax (male, human, plasma, oral, 30 mg, SAD 30 mg fasted, n = 6, Median, read-out: Tmax): 0.63 h | Vd/F (male, human, plasma, oral, 30 mg, SAD 30 mg fasted, n = 6, geometric mean (CV %)): 23.2 L | AUC (male, human, plasma, oral, 30 mg, SAD 30 mg fasted, n = 6, geometric mean, read-out: AUC): 44.2 µg·h/mL | Cmax (male, human, plasma, oral, 30 mg, SAD 30 mg fasted, n = 6, plasma total, geometric mean (CV %), read-out: Cmax): 1700 ng/mL | AUC (male, human, plasma, oral, 30 mg, single dose 30 mg Fasted, read-out: AUC, Observed): 44.2 µg·h/mL | Cmax (male, human, plasma, oral, 30 mg, single dose 30 mg Fasted, read-out: Cmax, Observed): 1700 ng/mL | Tmax (male, human, plasma, oral, 30 mg, single dose 30 mg Fasted, read-out: Tmax, Observed): 0.63 h | Vd (male, human, plasma, oral, 90 mg, SAD 90 mg Fasted, NCA estimate, per kg body weight, read-out: Vss): 0.31 L/kg | Vd (male, human, plasma, oral, 90 mg, SAD 90 mg Fasted, NCA estimate, read-out: Vss): 25.2 L | Vd (male, human, plasma, oral, 90 mg, SAD 90 mg Fed, NCA estimate, per kg body weight, read-out: Vss): 0.35 L/kg | Vd (male, human, plasma, oral, 90 mg, SAD 90 mg Fed, NCA estimate, read-out: Vss): 28.1 L | Tmax (male, human, plasma, oral, 90 mg, SAD 90 mg fasted, n = 6, Median, read-out: Tmax): 0.88 h | AUC(0-t) (male, human, plasma, oral, 90 mg, SAD 90 mg fasted, n = 6, geometric mean): 117 µg·h/mL | Vd/F (male, human, plasma, oral, 90 mg, SAD 90 mg fasted, n = 6, geometric mean (CV %)): 26.1 L | AUC (male, human, plasma, oral, 90 mg, SAD 90 mg fasted, n = 6, geometric mean, read-out: AUC): 121 µg·h/mL | Cmax (male, human, plasma, oral, 90 mg, SAD 90 mg fasted, n = 6, plasma total, geometric mean (CV %), read-out: Cmax): 4430 ng/mL | Tmax (male, human, plasma, oral, 90 mg, SAD 90 mg fed, n = 3, Median, read-out: Tmax): 3 h | AUC(0-t) (male, human, plasma, oral, 90 mg, SAD 90 mg fed, n = 3, geometric mean): 116 µg·h/mL | Vd/F (male, human, plasma, oral, 90 mg, SAD 90 mg fed, n = 3, geometric mean (CV %)): 27.8 L | AUC (male, human, plasma, oral, 90 mg, SAD 90 mg fed, n = 3, geometric mean, read-out: AUC): 121 µg·h/mL | Cmax (male, human, plasma, oral, 90 mg, SAD 90 mg fed, n = 3, plasma total, geometric mean (CV %), read-out: Cmax): 3170 ng/mL | AUC (male, human, plasma, oral, 90 mg, single dose 90 mg Fasted, read-out: AUC, Observed): 121 µg·h/mL | Cmax (male, human, plasma, oral, 90 mg, single dose 90 mg Fasted, read-out: Cmax, Observed): 4430 ng/mL | Tmax (male, human, plasma, oral, 90 mg, single dose 90 mg Fasted, read-out: Tmax, Observed): 0.88 h | AUC (male, human, plasma, oral, 90 mg, single dose 90 mg Fed, read-out: AUC, Observed): 121 µg·h/mL | Cmax (male, human, plasma, oral, 90 mg, single dose 90 mg Fed, read-out: Cmax, Observed): 3170 ng/mL | Tmax (male, human, plasma, oral, 90 mg, single dose 90 mg Fed, read-out: Tmax, Observed): 3 h | Vd (male, human, plasma, oral, 270 mg, SAD 270 mg Fasted, NCA estimate, per kg body weight, read-out: Vss): 0.27 L/kg | Vd (male, human, plasma, oral, 270 mg, SAD 270 mg Fasted, NCA estimate, read-out: Vss): 22.7 L | Vd (male, human, plasma, oral, 270 mg, SAD 270 mg Fed, NCA estimate, per kg body weight, read-out: Vss): 0.3 L/kg | Vd (male, human, plasma, oral, 270 mg, SAD 270 mg Fed, NCA estimate, read-out: Vss): 24.4 L | Tmax (male, human, plasma, oral, 270 mg, SAD 270 mg fasted, n = 5, Median, read-out: Tmax): 1.5 h | Vd/F (male, human, plasma, oral, 270 mg, SAD 270 mg fasted, n = 5, geometric mean (CV %)): 24 L | Tmax (male, human, plasma, oral, 270 mg, SAD 270 mg fed, n = 5, Median, read-out: Tmax): 4 h | AUC(0-t) (male, human, plasma, oral, 270 mg, SAD 270 mg fed, n = 5, geometric mean): 357 µg·h/mL | Vd/F (male, human, plasma, oral, 270 mg, SAD 270 mg fed, n = 5, geometric mean (CV %)): 24.9 L | AUC (male, human, plasma, oral, 270 mg, SAD 270 mg fed, n = 5, geometric mean, read-out: AUC): 368 µg·h/mL | Cmax (male, human, plasma, oral, 270 mg, SAD 270 mg fed, n = 5, plasma total, geometric mean (CV %), read-out: Cmax): 11500 ng/mL | Vd (male, human, plasma, oral, 270 mg, SAD Fasted doses 30, 90, 270 mg, NCA estimate, read-out: Vss, Mean): 0.29 L/kg | Vd (male, human, plasma, oral, 270 mg, SAD Fed doses 90, 270 mg, NCA estimate, read-out: Vss, Mean): 0.32 L/kg | Tmax (male, human, plasma, oral, 270 mg, SAD fasting conditions, 30, 90 and 270 mg, read-out: Tmax, range): 0.25 to 2.5 h | Tmax (male, human, plasma, oral, 270 mg, SAD fed conditions, 90 and 270 mg, read-out: Tmax): 3 to 6 h | AUC (male, human, plasma, oral, 270 mg, single dose 270 mg Fasted, read-out: AUC, Observed): 369 µg·h/mL | Cmax (male, human, plasma, oral, 270 mg, single dose 270 mg Fasted, read-out: Cmax, Observed): 13400 ng/mL | Tmax (male, human, plasma, oral, 270 mg, single dose 270 mg Fasted, read-out: Tmax, Observed): 1.5 h | AUC (male, human, plasma, oral, 270 mg, single dose 270 mg Fed, read-out: AUC, Observed): 368 µg·h/mL | Cmax (male, human, plasma, oral, 270 mg, single dose 270 mg Fed, read-out: Cmax, Observed): 11500 ng/mL | Tmax (male, human, plasma, oral, 270 mg, single dose 270 mg Fed, read-out: Tmax, Observed): 4 h | Vd (male, human, plasma, oral, PBPK model input, estimated from phase 1 SAD data, read-out: Vss): 0.29 L/kg | half-life (male, human, plasma, oral, SAD, read-out: Half-lives): 23 to 24 h | CL renal (male, human, urine, oral, PBPK model input): 0.55 mL/min
